Reference: patent US20230102836A1, “Amoebicidal Compositions for Contact Lens Solutions” (University of the West of Scotland, priority 2019, published 2023)
Several values for one entry are separate records, joined by “and”; a condition that tells them apart may be missing. Equal entries are not always repeated.

What was measured:
gDNA from A. castellanii = assay: QAC-DNA interaction assay; assay type: binding, Acanthamoeba castellanii; conditions: DNA:QAC ratios 1:0, 1:1, 1:10, 1:20; 15 min
Procedure: FIGS. 3A and 3B show the QAC-DNA interaction. The absorbance of genomic DNA (0.6 ng/ml) extracted from A. castellani trophozoites measured at 260 nm with the Nanodrop after incubating for 15 minutes with 0 ng/ml, 0.6 ng/ml, 6 ng/ml or 12 ng/ml of QAC12 (FIG. 3A) or QAC16 (FIG. 3B) to give ratios of 1:0, 1:1, 1:10 and 1:20. DNA absorbance increased and decreased with increased […] and [QAC12] respectively. Data is mean absorbance at 260 nm±SD; n=4 independent experiments performed in triplicates.
Genomic deoxynucleic acids (gDNA) from 10^8 A. castellanii trophozoites (treated with and without QAC) were extracted from cells harvested by centrifugation (850×g, 10 min), lysed with UNSET buffer (8M urea, […] NaCl, 2% SDS, […] ethylenediaminetetraacetic acid (EDTA), […] Tris-HCl, pH 7.5) and the DNA extracted with phenol-chloroform (1:1 v/v). The biphasic suspension with DNA enriched on the […] was centrifuged (12,000×g for 15 min, 4° C.) for clear separation and transferred to a new microcentrifuge tube. The DNA was precipitated with cold ethanol (100%, v/v) and 0.3M sodium acetate, washed twice with 70% (v/v) ethanol (12,000×g for 10 min, 4° C.), air dried and resuspended in distilled water. […]

[1] = system: A. castellanii trophozoites; assay: Cytotoxicity assay on trophozoites (resazurin / alamarBlue); assay type: cell-based, Acanthamoeba castellanii ATCC 50370; conditions: Acanthamoeba castellanii; Table 2; read-out: IC50 A. castellanii trophozoites
A. castellanii cysts = assay: Extrusion of cytoplasmic constituents (DNA, protein) from cysts; assay type: cell-based, Acanthamoeba castellanii ATCC 50370
Text: FIGS. 9A-9B show the extrusion of cytoplasmic constituents of A. castellani cysts to the external milieu after QAC treatment. DNA (FIG. 9A) and Protein (FIG. […] 9A) and at 280 nm (FIG. 9B) respectively. Data is mean absorbance at 260 nm (FIG. 9A) and 280 nm (FIG. 9B)±SD respectively: n=4 independent experiments performed in triplicates.
Protein concentration in cell extract and media of QAC-treated and untreated A. castellanii trophozoites was estimated at 280 nm using the Nanodrop® ND-1000 and expressed as ng/μl protein. DNA concentrations were estimated similarly at 260 nm and expressed as ng/μl.

[2] = system: Acanthamoeba trophozoites; assay: Checkerboard dilution QAC-APC interaction (Bliss model); assay type: cell-based, Acanthamoeba castellanii; conditions: APC12, APC14, APC16; 96 h at 25° C.
Procedure: Acanthamoeba trophozoites (10^5 cells/ml. n=5/treatment) treated with 100 μg/ml doubly diluted to 0.06 μg/ml of QAC12 (FIG. 7A), […], QAC16 (FIG. 7C) and QAC18 (FIG. 7D) with APC 12 (i), APCI 4 (ii) and APC16 (iii) for 96 h at 25° C. Cell viability estimated by the alamarBlue assay the dose-response curves used to produce a surface analysis (right panel) and the interaction profile determined using the Bliss model. The degree of interaction characterised by the QCScore heuristic score are produced as heat map (left panel). The colour of each cell in the heatmap and the surface analysis represents the assay response at that dose combination; red to orange, antagonistic: yellow to green, additive and blue, synergistic.
The change in potency between QAC and APC prompted us to used the checkerboard dilution method to identify synergistic interactions (FIG. 7A-D). Three interaction profiles, antagonistic (orange to red), additive (yellow to green) and synergistic (blue) were observed, with optimal synergistic interactions deemed to be significant occurring between 20-38%; (FIG. 7).

[3] = system: A. castellanii trophozoites; assay: DNA-agarose gel electrophoresis of gDNA of treated trophozoites; assay type: cell-based, Acanthamoeba castellanii; conditions: 18.75 μg/ml after 96 h
Procedure: Genomic deoxynucleic acids (gDNA) from 10^8 A. castellanii trophozoites (treated with and without QAC) were extracted from cells harvested by centrifugation (850×g, 10 min), lysed with UNSET buffer (8M urea, 150 μM NaCl, 2% SDS, […] ethylenediaminetetraacetic acid (EDTA), […] Tris-HCl, pH 7.5) and the DNA extracted with phenol-chloroform (1:1 v/v). The biphasic suspension with DNA enriched on the […] was centrifuged (12,000×g for 15 min, 4° C.) for clear separation and transferred to a new microcentrifuge tube. The DNA was precipitated with cold ethanol (100%, v/v) and 0.3M sodium acetate, washed twice with 70% (v/v) ethanol (12,000×g for 10 min, 4° C.), air dried and resuspended in distilled water.

CCCCCCCCCCCCCCCCCC[N+](C)(C)C.[Br-] [QAC18, octadecyltrimethyl ammonium bromide]
Change of gDNA absorbance at 260 nm with increasing QAC (gDNA from A. castellanii): progressively increased absorbance | IC50 [1]: 1.06 µg/mL and 3 µM | Increase in DNA in the external milieu of cysts (A. castellanii cysts; after 1 h (FIG. 9A)): 40% | Increase in proteins in the external milieu of cysts (A. castellanii cysts; after 1 h (FIG. 9B)): 50% | Interaction profile of QAC combined with APCs [2]: No significant synergy | Fragmented DNA profile that depicts death via apoptosis [3]: not observed
